Experiments:
Puccinia recondite = test: Puccinia test (wheat) / protective; assay type: in vivo; conditions: wheat plants, protective spray, application rate 250 g/ha, evaluation 10 days after inoculation
Method: Puccinia Test (wheat)/Protective [table] To produce a suitable preparation of active compound, 1 part by weight of active compound is mixed with the stated amounts of solvent and emulsifier, and the concentrate is diluted with water to the desired concentration. To test for protective activity, young plants arc sprayed with the preparation of active compound at the stated application rate. After the spray coating has dried on, the plants are sprayed with a conidia suspension of Puccinia recondite. The plants remain in an incubation cabin at 20° C. and 100% relative atmospheric humidity for 48 hours. The plants are then placed in a greenhouse at a temperature of approximately 20° C. and a relative atmospheric humidity of 80% to promote the development of rust pustules. Evaluation is carried out 10 days after the inoculation. 0% means an efficacy which corresponds to that of the control, whereas an efficacy of 100% means that no infection is observed.

Alternaria solani = test: Alternaria test (tomato) / protective; assay type: in vivo; conditions: tomato plants, protective spray, application rate 750 g/ha, evaluation 7 days after inoculation
Method: Alternaria Test (tomato)/Protective [table] To produce a suitable preparation of active compound, 1 part by weight of active compound is mixed with the stated amounts of solvent and emulsifier, and the concentrate is diluted with water to the desired concentration. To test for protective activity, young tomato plants are sprayed with the preparation of active compound at the stated application rate. 1 day after the treatment, the plants are inoculated with a spore suspension of Alternaria solani and then remain at 100% rel. humidity and 20° C. for 24 h. The plants then remain at 96% rel. atmospheric humidity and a temperature of 20° C. Evaluation is carried out 7 days after the inoculation. 0% means an efficacy which corresponds to that of the control, whereas an efficacy of 100% means that no infection is observed.

Sphaerotheca fuliginea = test: Sphaerotheca test (cucumber) / protective; assay type: in vivo; conditions: Podosphaera fuliginea, 240 h; cucumber plants, protective spray, application rate 100 g/ha, evaluation 10 days after inoculation; read-out: % Efficacy
Method: (§1) Sphacrotheca Test (cucumber)/Protective [table] To produce a suitable preparation of active compound, 1 part by weight of active compound is mixed with the stated amounts of solvent and emulsifier, and the concentrate is diluted with water to the desired concentration. To test for protectivity activity, young plants are sprayed with the preparation of active compound at the stated application rate. After the spray coating has dried on, the plants are inoculated with an aqueous spore suspension of Sphaerotheca fuliginea. The plants are then placed in a greenhouse at approximately 23° C. and a relative atmospheric humidity of approximately 70%. Evaluation is carried out 10 days after the inoculation. 0% means an efficacy which corresponds to that of the control, whereas an efficacy of 100% means that no infection is observed.

Podosphaera leucotricha = test: Podosphaera test (apple) / protective; assay type: in vivo; conditions: 240 h, apple plants, protective spray, application rate 100 g/ha, evaluation 10 days after inoculation, read-out: % Efficacy
Method: as §1, with “Podosphaera” for “Sphacrotheca”, “(apple)/Protective Solvent: 24.5 parts by weight of acetone • 24.5 parts by weight of dimethylacetamide Emulsifier; 1.0 part by weight of alkyl-aryl polyglycol ether” for “(cucumber)/Protective [table]”, “protectiv” for “protectivity”, “the apple mildew pathogen Podosphaera leucotricha.” for “Sphaerotheca fuliginea.”

[1] = tested on: Gloeophyllum trabeum, Coniophora puteana, Poria placenta, Lentinus tigrinus and Coriolus versicolor; test: Inhibition test on giant colonies of Basidiomycetes; assay type: cell-based; conditions: inhibition of hyphal growth on malt extract peptone agar at 26° C., 6 ppm active compound; read-out: % efficacy
Method: Inhibition Test on Giant Colonies of Basidiomycetes Mycelium sections were removed from colonies of Gloeophyllum trabeum, Coniophora puteana, Poria placenta, Lentinus tigrinus and Coriolus versicolor and incubated on an agar medium containing malt extract peptone at 26° C. The inhibition of hyphal growth on active-compound-containing media was compared with the longitudinal growth on media without an addition of active compound and rated as per cent inhibition.

Venturia inaequalis = test: Venturia test (apple) / protective; assay type: in vivo; conditions: 288 h, apple plants, protective spray, application rate 100 g/ha, evaluation 12 days after inoculation, read-out: % Efficacy
Method: Venturia Test (apple)/Protective [table] To produce a suitable preparation of active compound, 1 part by weight of active compound is mixed with the stated amounts of solvent and emulsifier, and the concentrate is diluted with water to the desired concentration. To test for protectivity activity, young plants are sprayed with the preparation of active compound at the stated application rate. After the spray coating has dried on, the plants are inoculated with an aqueous conidia suspension of the apple scab pathogen Venturia inaequalis and then remain in an incubation cabin at approximately 20° C. and 100% relative atmospheric humidity for 1 day. The plants are then placed in a greenhouse at approximately 21° C. and a relative atmospheric humidity of approximately 90%. Evaluation is carried out 12 days after the inoculation. 0% means an efficacy which corresponds to that of the control, whereas an efficacy of 100% means that no infection is observed.

SMILES | % Efficacy (Puccinia recondite) [%] | % Efficacy (Alternaria solani) [%] | pest or weed control at 100 g/ha (Sphaerotheca fuliginea) [%] | pest or weed control at 100 g/ha (Podosphaera leucotricha) [%] | Emax at 6 ppm [1] [%] | pest or weed control at 100 g/ha (Venturia inaequalis) [%]
CO/N=C/c1ccc(-c2ccccc2NC(=O)c2sc(C)nc2C(F)(F)F)cc1 [Example I-1] | 100 | 100 | 100 | 100 | 100 | 100
CO/N=C/c1cccc(-c2ccccc2NC(=O)c2sc(C)nc2C(F)(F)F)c1 [Example I-2] |  | 100 |  |  |  | 
CCCCO/N=C\c1ccc(-c2ccccc2NC(=O)c2sc(C)nc2C(F)(F)F)cc1 [Example I-3] | 100 |  | 100 | 100 |  | 100
CCO/N=C\c1ccc(-c2ccccc2NC(=O)c2sc(C)nc2C(F)(F)F)cc1 [Example I-4] |  |  | 93 | 95 |  | 100
Cc1nc(C(F)(F)F)c(C(=O)Nc2ccccc2-c2ccc(/C=N\OC(C)C)cc2)s1 [Example I-5] |  |  | 100 | 100 |  | 100
CO/N=C(\C)c1ccc(-c2ccccc2NC(=O)c2sc(C)nc2C(F)(F)F)cc1 [Example I-6] |  | 90 |  |  |  | 
CO/N=C\c1ccc(-c2ccccc2NC(=O)c2cn(C)nc2C(F)(F)F)cc1 [Example I-10] | 100 |  | 88 | 88 | 100 | 88
CO/N=C/c1ccc(-c2ccccc2NC(=O)c2cn(C)nc2C(F)F)cc1 [Example I-11] |  | 95 | 95 | 93 | 100 | 100
CO/N=C\c1ccc(-c2ccccc2NC(=O)c2cn(C)nc2C)cc1 [Example I-12] |  |  |  |  | 100 | 
CO/N=C\c1ccc(-c2ccccc2NC(=O)c2cccnc2Cl)cc1 [Example I-20] | 100 |  | 100 | 100 |  | 100
CCCCO/N=C/c1ccc(-c2ccccc2NC(=O)c2cn(C)nc2C(F)(F)F)cc1 [Example I-22] |  |  | 100 | 100 |  | 100
CCCO/N=C/c1ccc(-c2ccccc2NC(=O)c2sc(C)nc2C(F)(F)F)cc1 [Example I-23] |  |  | 100 | 100 |  | 100
CCO/N=C(/C)c1ccc(-c2ccccc2NC(=O)c2cn(C)nc2C(F)(F)F)cc1 [Example I-24] |  |  | 92 | 75 |  | 100
CC(C)O/N=C/c1ccc(-c2ccccc2NC(=O)c2cn(C)nc2C(F)(F)F)cc1 [Example I-26] |  |  | 100 | 100 |  | 100
CCCO/N=C/c1ccc(-c2ccccc2NC(=O)c2cn(C)nc2C(F)(F)F)cc1 [Example I-28] |  |  | 100 | 99 |  | 100
Cn1cc(C(=O)Nc2ccccc2-c2ccc(/C=N\O)cc2)c(C(F)(F)F)n1 [Example I-41] |  |  | 72 | 98 |  | 100
CO/N=C/c1ccc(-c2ccccc2NC(=O)c2sccc2C)cc1 [Example I-47] |  |  | 100 | 100 |  | 100
CO/N=C/c1ccc(-c2ccccc2NC(=O)c2cn(C)nc2C(F)(F)F)cc1Cl [Example I-49] | 100 |  | 100 | 100 |  | 100
CO/N=C\c1cc(-c2ccccc2NC(=O)c2cn(C)nc2C(F)(F)F)ccc1/C=N/OC [Example I-50] |  |  | 97 | 93 |  | 100
CO/N=C/c1ccc(-c2c(C)cccc2NC(=O)c2sc(C)nc2C(F)(F)F)cc1 [Example I-51] | 100 |  | 100 | 100 |  | 100
CO/N=C/c1cccc(-c2ccccc2NC(=O)c2cn(C)nc2C(F)(F)F)c1 [Example I-52] |  |  | 97 | 77 |  | 100

— US7176228B2, “Pyrazole biphenylcarboxamides” (Bayer Cropscience AG, priority 2000, dated 2007)
